The record followed here is patent US4644000A, “Microbicidal agents containing 2-(1H-pyrazol-1-yl)-4-(3H)-quinazolinones” (Bayer Aktiengesellschaft, priority 1984, dated 1987).

The subject of series [1] is slime organisms. Put plainly: MIC against slime organisms in Allens nutrient solution. In kind it is cell-based. The settings on record: 504 h, about 10^6 germs/ml, 3 weeks at room temperature. As to the method: Compounds according to the invention are used in concentrations of in each case 0.1 to 100 mg/l in Allens nutrient solution (Arch. Mikrobiol. 17, 34 to 53 (1952)), which contains, in 4 l of sterile water, 0.2 g of ammonium chloride, 4.0 g of sodium nitrate, 1.0 g of dipotassium hydrogen phosphate, 0.2 g of calcium chloride, 2.05 g of magnesium sulphate, 0.02 g of iron chloride and 1% of caprolactam, dissolved in a little acetone. Shortly beforehand, the nutrient solutions are infected with slime organisms (about 10^6 germs/ml), which have been isolated from the spinning water circulations used in the production of polyamide. Nutrient solutions which contain the minimum inhibitory concentration (MIC) or higher concentrations of active compound are still completely clear after culture for 3 weeks at room temperature, that is to say the pronounced reproduction of the microbes and slime formation noticeable after 3 to 4 days in nutrient solutions containing no active compounds are absent.

In series [2] the test system is Penicillium glaucum. Put plainly: MIC in beerwort/peptone agar, Penicillium glaucum. The settings on record: 28° C., 60 to 70% relative humidity, 2 weeks; for MIC: Penicillium, 336 h. The format is cell-based. On the procedure: (§1) Active compounds according to the invention are added in concentrations of 0.1 mg/1 to 5,000 mg/1 to an agar prepared from beerwort and peptone. After storage at 28° C. and 60 to 70% relative atmospheric humidity for 2 weeks, the MIC is determined. The MIC is the lowest concentration of active compound at which no growth at all by the species of microbes used takes place, and is given in Table 1.

The subject of series [3] is Chaetomium globosum. Put plainly: MIC in beerwort/peptone agar, Chaetomium globosum. The format is cell-based. The settings on record: 28° C., 60 to 70% relative humidity, 2 weeks; for MIC: Chaetomium globosum, 336 h. On the procedure: as §1
In series [4] the test system is Polyporus versicolor. Put plainly: MIC in beerwort/peptone agar, Polyporus versicolor. In kind it is cell-based. The settings on record: 28° C., 60 to 70% relative humidity, 2 weeks; for MIC: Trametes versicolor, 336 h. On the procedure: as §1
Series [5] relates to Trichoderma viride. Put plainly: MIC in beerwort/peptone agar, Trichoderma viride. The format is cell-based. The conditions noted are these: 28° C., 60 to 70% relative humidity, 2 weeks; for MIC: Trichoderma viride, 336 h. As to the method:
as §1

Series [6] deals with Aspergillus niger. Put plainly: MIC in beerwort/peptone agar, Aspergillus niger. The settings on record: 28° C., 60 to 70% relative humidity, 2 weeks; for MIC: Aspergillus niger, 336 h. In kind it is cell-based. On the procedure: as §1
Series [7] deals with Aureobasidium pullulans. Put plainly: MIC in beerwort/peptone agar, Aureobasidium pullulans. The format is cell-based. The conditions noted are these: 28° C., 60 to 70% relative humidity, 2 weeks; for MIC: Aureobasidium pullulans, 336 h. On the procedure:
as §1

Series [8] concerns Coniophora puteana. Put plainly: MIC in beerwort/peptone agar, Coniophora puteana. The conditions noted are these: 28° C., 60 to 70% relative humidity, 2 weeks; for MIC: Coniophora puteana, 336 h. In kind it is cell-based. On the procedure: as §1
Series [9] deals with Alternaria tenuis. Put plainly: MIC in beerwort/peptone agar, Alternaria tenuis. In kind it is cell-based. The settings on record: 28° C., 60 to 70% relative humidity, 2 weeks; for MIC: Alternaria alternata, 336 h. As to the method: as §1
Series [10] relates to Sclerophoma pityophila. Put plainly: MIC in beerwort/peptone agar, Sclerophoma pityophila. In kind it is cell-based. The settings on record: 28° C., 60 to 70% relative humidity, 2 weeks; for MIC: Sydowia polyspora, 336 h. On the procedure: as §1
The test system of series [11] is Lentinus tigrinus. Put plainly: MIC in beerwort/peptone agar, Lentinus tigrinus. The format is cell-based. The conditions noted are these: 28° C., 60 to 70% relative humidity, 2 weeks; for MIC: Lentinus tigrinus, 336 h. As to the method: as §1
Series [12] is described as follows: Water solubility of potassium salt. The format is physicochemical. As to the method: 12.3 g (0.05 mole) of 2-(1H-pyrazol-1-yl)-6-chloro-4(3H)-quinazolinone (=compound from Example 4) are stirred in 1 liter of water with 45 ml of 1 N KOH for 1 hour. Residues of the starting material which have remained undissolved are removed, the clear solution is evaporated in vacuo and the solid residue is dried at 110° C. to give 12.2 g of water-soluble potassium salt of the quinazolinone employed.

Series [13] relates to fungi. Put plainly: Mould resistance of PVA emulsion paint films (paint fungicide test, Report 219 Defense Standards Laboratories). The conditions noted are these: 28° to 30° C., 90 to 95% relative humidity, evaluated after 3 weeks; active compound E: even after ageing. As to the method: Testing is carried out in accordance with the method in Report 219 of the Defense Standards Laboratories Maribyrnong/Australia as follows: a smooth card is coated on both sides with the paint to be tested and is dried at room temperature for 8 days. For ageing, part of the paint film is kept in running water of 24° for 24 hours, or aerated with fresh air of 40° to 60° C. for 8 days, or subjected to a dry Xenon test for 110 hours. Pieces of 5×5 cm cut out from the samples thus prepared are placed individually on a glucose nutrient medium in Petri dishes and contaminated with a spore suspension of the following fungi: Aspergillus niger, Aureobasidium pullulans, Alternaria tenuis, Penicillium citrinum, Stachybotrys atra, Paecilomyces varioti, Cladosporium herbarum, Aspergillus ustus and Aspergillus flavus.
The contaminated dishes are stored at 28° to 30° C. and 90 to 95% relative atmospheric humidity, and are evaluated after 3 weeks. Paint films are regarded as mould-resistant if the samples remain free from fungi after these tests.
A commercially available emulsion paint based on PVA is tested for mould resistance by the test method described above.

The test system of series [14] is microbes (bacteria, yeasts and moulds). Put plainly: Preservation of cooling lubricant use dilutions. The settings on record: 3-5% strength use dilutions, contaminated each day for 3 months; 3% preservative in cooling lubricant. On the procedure: 3% of a preservative composed of 90% of benzyl alcohol mono(poly)hemiformaland 10% of active compound E is added to a cooling lubricant based on mineral oil.
3-5% strength use dilutions of the cooling lubricant are contaminated massively each day for 3 months with microbes (bacteria, yeasts and moulds) isolated from microbially decayed cooling lubricant use dilutions.

Broadly, the MIC is the least concentration at which growth counts as inhibited. Read a high MIC as a less susceptible organism.

Values after ≈ are worked out from the molar mass of the structure shown.

In turn, `O=c1[nH]c(-n2cccn2)nc2cc(Cl)ccc12` [Active compound H, 2-(1H-Pyrazol-1-yl)-7-chloro-4(3H)-quinazolinone] yielded an MIC in [1] of 100 µg/mL (≈ 405 µM).
`O=c1[nH]c(-n2cccn2)nc2ccccc12` [Active compound A, 2-(1H-Pyrazol-1-yl)-4-(3H)-quinazolinone]: the MIC in [2] was determined as 100 µg/mL (≈ 471 µM); in [3], 100 µg/mL (≈ 471 µM); in series [4] it was 20 µg/mL (≈ 94.2 µM); in [5], 100 µg/mL (≈ 471 µM); in [6], 100 µg/mL (≈ 471 µM); in [7] it was 5 µg/mL (≈ 23.6 µM). Besides, the minimum inhibitory concentration (MIC) turned out to be 1 µg/mL (≈ 4.71 µM) in series [8]; 20 µg/mL (≈ 94.2 µM) in series [9]; 30 µg/mL (≈ 141 µM) in [1]; 20 µg/mL (≈ 94.2 µM) in series [10]; 20 µg/mL (≈ 94.2 µM) in series [11].
Regarding `Cc1ccn(-c2nc3ccccc3c(=O)[nH]2)n1` [Active compound C, 2-(3-Methyl-1H-pyrazol-1-yl)-4(3H)-quinazolinone], the MIC was found to be 75 µg/mL (≈ 332 µM) in series [2]; 5 µg/mL (≈ 22.1 µM) in [3]; 35 µg/mL (≈ 155 µM) in [4]; 50 µg/mL (≈ 221 µM) in series [5]; 35 µg/mL (≈ 155 µM) in series [6]; 50 µg/mL (≈ 221 µM) in series [7]. The MIC was less than 0.1 µg/mL in series [8]; 15 µg/mL (≈ 66.3 µM) in series [9]; 100 µg/mL (≈ 442 µM) in series [1]; 10 µg/mL (≈ 44.2 µM) in [10]; 20 µg/mL (≈ 88.4 µM) in series [11].
With `O=c1[nH]c(-n2cccn2)nc2ccc(Cl)cc12` [Example 32, 2-(1H-pyrazol-1-yl)-6-chloro-4(3H)-quinazolinone], the “water solubility (in words)” value in series [12] was “water-soluble”.
Take `CN(C)C(=S)SSC(=S)N(C)C` [tetramethylthiuram disulphide, reference compound]: the “content of fungicide at which PVA emulsion paint films are mould-resistant” value in [13] is reported as not below 4%.
On to benzyl alcohol mono(poly)hemiformal, for which the “state of cooling lubricant use dilutions at the end of the testing period” value in series [14] is listed as “show attack by mould at the end of the testing period”.
As for “Isomer mixture of 2-(3- and 5-methyl-1H-pyrazol-1-yl)-4(3H)-quinazolinone [Active compound E]”, in [2], the “MIC value, Penicillium glaucum” value came to 35 µg/mL. Besides, the “MIC value, Chaetomium globosum” value in series [3] was 3 µg/mL. Besides, the “MIC value, Polyporus versicolor” value in series [4] was determined as 35 µg/mL. Also, in series [5], the “MIC value, Trichoderma viride” value stood at 75 µg/mL. For the same compound, in series [6], the “MIC value, Aspergillus niger” value came to 50 µg/mL. In addition, the “MIC value, Aureobasidium pullulans” value in series [7] is 15 µg/mL. For the same compound, in [8], the “MIC value, Coniophora puteana” value amounted to 1 µg/mL. Further, the “MIC value, Alternaria tenuis” value in series [9] came out at 75 µg/mL. The “MIC value, Sclerophoma pityophila” value in [10] stood at 2 µg/mL. Also, the “content of fungicide at which PVA emulsion paint films are mould-resistant” value in series [13] worked out at 0.5%. Moreover, the “MIC value, Lentinus tigrinus” value in [11] worked out at 20 µg/mL.
As to `CCc1cnn(-c2nc3ccccc3c(=O)[nH]2)c1` [Active compound F, 2-(4-Ethyl-1H-pyrazol-1-yl)-4(3H)-quinazolinone], the MIC in series [2] was 35 µg/mL (≈ 146 µM); in series [3] it was less than 20 µg/mL; in series [4], 30 µg/mL (≈ 125 µM); in series [5], 50 µg/mL (≈ 208 µM); in series [6] it was 50 µg/mL (≈ 208 µM); in series [7], 50 µg/mL (≈ 208 µM). In addition, the MIC came out at 30 µg/mL (≈ 125 µM) in series [1], 50 µg/mL (≈ 208 µM) in series [10] and 20 µg/mL (≈ 83.2 µM) in [11].
With `Cc1ccnn1-c1nc2ccccc2c(=O)[nH]1` [Active compound D, 2-(5-Methyl-1H-pyrazol-1-yl)-4(3H)-quinazolinone], the MIC in [2] was found to be 35 µg/mL (≈ 155 µM); in [3] it was 5 µg/mL (≈ 22.1 µM); in series [4] it was 15 µg/mL (≈ 66.3 µM); in series [5], 50 µg/mL (≈ 221 µM); in series [6], 35 µg/mL (≈ 155 µM); in series [7], 35 µg/mL (≈ 155 µM). In addition, the MIC in series [8] is less than 0.1 µg/mL; in series [9], 15 µg/mL (≈ 66.3 µM); in [1], 75 µg/mL (≈ 332 µM); in series [10], 50 µg/mL (≈ 221 µM); in series [11] it was 20 µg/mL (≈ 88.4 µM).
With `Cc1cnn(-c2nc3ccccc3c(=O)[nH]2)c1` [Active compound B, 2-(4-Methyl-1H-pyrazol-1-yl)-4(3H)-quinazolinone], the MIC in series [2] was 7 µg/mL (≈ 30.9 µM); in [3], less than 20 µg/mL; in series [4] it was less than 10 µg/mL; in series [5] it was 50 µg/mL (≈ 221 µM); in series [6], 50 µg/mL (≈ 221 µM); in series [7], 10 µg/mL (≈ 44.2 µM). The MIC in series [9] is 75 µg/mL (≈ 332 µM); in series [10] it was 50 µg/mL (≈ 221 µM); in series [11], less than 10 µg/mL.
As to `Cc1cnn(-c2nc3ccc(Cl)cc3c(=O)[nH]2)c1` [Active compound G, 2-(4-Methyl-1H-pyrazol-1-yl)-6-chloro-4-(3H)-quinazolinone], the MIC came out at 7 µg/mL (≈ 26.9 µM) in series [2], 1 µg/mL (≈ 3.84 µM) in [3], 1 µg/mL (≈ 3.84 µM) in series [8] and 5 µg/mL (≈ 19.2 µM) in series [10].
